This note sets out measurements from ChEMBL document CHEMBL1201862, “PubChem BioAssay data set” (2004).

Each structure is given as a SMILES string.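 Where inhibition never reached the appropriate level, the endpoint shown equals the highest concentration tested. Otherwise, values were interpolated linearly from a five-concentration, 48-hour dose response in 96-well plates. GI50 marks 50% less growth.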 Calls of active or inactive are those of the source. Rule as the data show it: active = GI50 up to about 1.1 µM and inactive = higher.

Test systems include A498; A549; CCRF-CEM; COLO 205; HCT-116; HCT-15; K562; LOX IMVI; M14; Malme-3M; NCI-H226; NCI-H460; SF-295; SF-539; SK-MEL-28; SK-OV-3; SNB-75; U-251; UACC-257; MOLT-4.
Assay in all cases: NCI anticancer screen, dose series, 48 h

Consider `O=S(=O)(O)Nc1ccc(-c2nc3ccccc3s2)cc1Cl`, for which the GI50 in the assay on A498 is > 100 µM (inactive); in the assay with A549, > 100 µM (inactive); in the assay on CCRF-CEM, > 100 µM (inactive); in the assay with COLO 205, > 100 µM (inactive); in the assay with HCT-116, > 100 µM (inactive); with HCT-15, above 100 µM. The GI50 was > 100 µM (inactive) with K562; > 100 µM (inactive) with LOX IMVI; > 100 µM (inactive) in the assay on M14; > 100 µM (inactive) with Malme-3M; 14.6 µM (inactive) with NCI-H226; > 100 µM (inactive) with NCI-H460. For the same compound, the GI50 with SF-295, in the assay on SF-539, in the assay on SK-MEL-28, with SK-OV-3, with SNB-75 and in the assay with U-251 was > 100 µM (inactive) throughout. In the assay with UACC-257, the GI50 was > 100 µM (inactive).

In the case of `CC(C)OP(=O)(OC(C)C)c1nc(-c2ccccc2)n(-c2ccc([N+](=O)[O-])cc2)n1`, the GI50 in the assay on A498 is > 100 µM (inactive); in the assay with A549, > 100 µM (inactive); in the assay with CCRF-CEM, > 100 µM (inactive); in the assay on COLO 205, > 100 µM (inactive); with HCT-116, > 100 µM (inactive); in the assay with HCT-15, above 100 µM. In addition, the GI50 in the assay on K562 was 85.5 µM (inactive); with M14, > 100 µM (inactive); in the assay on MOLT-4 it was > 100 µM (inactive); in the assay on Malme-3M, > 100 µM (inactive); in the assay on NCI-H226, 31.3 µM (inactive); with NCI-H460, > 100 µM (inactive). In addition, the GI50 with SF-295, in the assay with SF-539, in the assay on SK-MEL-28, with SK-OV-3, in the assay with SNB-75 and with U-251 was > 100 µM (inactive) each time. Also, in the assay with UACC-257, the GI50 was > 100 µM (inactive).

Take `COc1ccc(C(C2=C(O)COC2=O)c2cc3c(cc2O)OCO3)cc1OC` (configuration not stated): the GI50 in the assay on A498 is > 100 µM (inactive); in the assay with A549, > 100 µM (inactive); in the assay on CCRF-CEM it was > 100 µM (inactive); in the assay on COLO 205, > 100 µM (inactive); in the assay with HCT-116, > 100 µM (inactive); in the assay with HCT-15 it was above 100 µM. Also, the GI50 with K562, with LOX IMVI, with M14, in the assay with MOLT-4, in the assay with Malme-3M and in the assay with NCI-H226 was > 100 µM (inactive) in each case. For the same compound, the GI50 in the assay on NCI-H460, in the assay with SF-295, with SF-539, in the assay on SK-MEL-28, in the assay on SK-OV-3 and in the assay with SNB-75 was > 100 µM (inactive) each time. Moreover, in the assay with UACC-257, the GI50 was > 100 µM (inactive).

Turning to `CC1=C(C(=O)Nc2ccc(Cl)c(Cl)c2)C(c2ccc([N+](=O)[O-])cc2)C(C(=O)Nc2ccc(Cl)c(Cl)c2)=C(C)N1`, the GI50 in the assay with A498 is 3.32 µM (inactive); in the assay on A549, 2.82 µM (inactive); in the assay with COLO 205 it was 1.71 µM (inactive); in the assay with HCT-116 it was 1.55 µM (inactive); with HCT-15, 2.6 µM; in the assay on K562, 1.07 µM (active). The GI50 with LOX IMVI is 2.06 µM (inactive); in the assay with M14 it was 1.85 µM (inactive); with MOLT-4, 0.223 µM (active); in the assay on Malme-3M, 2.57 µM (inactive); with NCI-H226 it was 3.88 µM (inactive); with NCI-H460, 2.41 µM (inactive). The GI50 was 2.7 µM (inactive) in the assay with SF-295; 3.13 µM (inactive) in the assay with SF-539; 2.44 µM (inactive) with SK-MEL-28; 4.31 µM (inactive) in the assay with SK-OV-3; 3.84 µM (inactive) with SNB-75; 2.49 µM (inactive) in the assay with U-251. Also, the GI50 in the assay with UACC-257 is 2.51 µM (inactive).

As to `COc1cc(-c2cc(-c3ccccc3)nc(-c3c(OC)ccc4c(C)cc(=O)oc34)c2)cc(OC)c1OC`, the GI50 was > 100 µM (inactive) in the assay with A498; > 100 µM (inactive) in the assay on A549; > 100 µM (inactive) in the assay with CCRF-CEM; > 100 µM (inactive) in the assay on COLO 205; > 100 µM (inactive) in the assay on HCT-116; above 100 µM in the assay on HCT-15. For the same compound, the GI50 in the assay on K562, in the assay on LOX IMVI, in the assay with M14, in the assay on MOLT-4, with Malme-3M and with NCI-H226 was > 100 µM (inactive) each time. Moreover, the GI50 with NCI-H460, with SF-295, in the assay with SF-539, in the assay with SK-OV-3, in the assay on SNB-75 and in the assay with U-251 was > 100 µM (inactive) throughout. Further, the GI50 in the assay with UACC-257 was > 100 µM (inactive).

`CCCCS(=O)(=O)Nc1ccc(Nc2c3ccccc3nc3ccccc23)c(OC)c1`: the GI50 with A498 is 2.05 µM (inactive); in the assay with A549, 0.232 µM (active); with CCRF-CEM it was 0.338 µM (active); in the assay with COLO 205, 5.78 µM (inactive); with HCT-116 it was 1.73 µM (inactive); in the assay with HCT-15 it was 1.71 µM. Besides, the GI50 in the assay on K562 is 2.51 µM (inactive); in the assay with LOX IMVI it was 1.26 µM (inactive); in the assay on MOLT-4 it was 0.0718 µM (active); in the assay with Malme-3M, 2.21 µM (inactive); in the assay with NCI-H226, 0.881 µM (active); in the assay with NCI-H460, 0.0863 µM (active). In addition, the GI50 in the assay with SF-295 was 0.902 µM (active); with SF-539, 1.08 µM (active); in the assay with SK-MEL-28, 5.74 µM (inactive); in the assay with SK-OV-3, 5.07 µM (inactive); in the assay on SNB-75, 1.52 µM (inactive); in the assay on U-251, 0.773 µM (active). Moreover, in the assay on UACC-257, the GI50 was 6 µM (inactive).

Consider `N#Cc1ccsc1Nc1ccccc1[N+](=O)[O-]`, for which the GI50 in the assay on A498 is > 100 µM (inactive); in the assay on A549 it was > 100 µM (inactive); with CCRF-CEM, > 100 µM (inactive); in the assay with COLO 205, > 100 µM (inactive); in the assay with HCT-116 it was > 100 µM (inactive); with HCT-15 it was above 100 µM. For the same compound, the GI50 with K562, in the assay on M14, with MOLT-4, with Malme-3M, in the assay with NCI-H226 and in the assay with NCI-H460 was > 100 µM (inactive) each time. Besides, the GI50 in the assay with SF-295 is 64.1 µM (inactive); in the assay with SF-539, > 100 µM (inactive); in the assay on SK-MEL-28, > 100 µM (inactive); in the assay with SK-OV-3 it was > 100 µM (inactive); with SNB-75, > 100 µM (inactive); in the assay on U-251 it was 72.9 µM (inactive). In addition, the GI50 in the assay with UACC-257 is > 100 µM (inactive).

As for `O=C(Nc1ccc(F)cc1)c1cc2c(cc1Cl)Sc1nccn1S2(=O)=O`, the GI50 in the assay with A498 was 23.7 µM (inactive); in the assay with A549, > 100 µM (inactive); with CCRF-CEM it was > 100 µM (inactive); in the assay with COLO 205 it was > 100 µM (inactive); in the assay with HCT-116, 35.6 µM (inactive); in the assay on HCT-15, 81.7 µM. The GI50 with K562, in the assay with LOX IMVI, in the assay on M14, in the assay on MOLT-4, with Malme-3M and in the assay with NCI-H226 was > 100 µM (inactive) in each case. In addition, the GI50 with NCI-H460 is 33.5 µM (inactive); in the assay on SF-295 it was 28.9 µM (inactive); with SF-539, 37 µM (inactive); in the assay on SK-MEL-28, 88.5 µM (inactive); in the assay on SK-OV-3, 94.6 µM (inactive); with SNB-75, 17.8 µM (inactive). Moreover, the GI50 with U-251 is 16.3 µM (inactive).

As for `COc1ccc(/C(Cl)=C(\C=O)c2ccc(Cl)c(Cl)c2)cc1`, the GI50 in the assay on A498 was 20.4 µM (inactive); with CCRF-CEM it was 2.96 µM (inactive); with COLO 205, 18.8 µM (inactive); in the assay with HCT-116, 3.83 µM (inactive); with HCT-15, 4.6 µM; in the assay on K562 it was 4.04 µM (inactive). Besides, the GI50 in the assay on LOX IMVI is 3.72 µM (inactive); in the assay on M14, 13.7 µM (inactive); in the assay with MOLT-4, 2.6 µM (inactive); with Malme-3M it was 16.1 µM (inactive); in the assay on NCI-H226, 13.2 µM (inactive); in the assay on NCI-H460, 5.25 µM (inactive). Also, the GI50 was 9.12 µM (inactive) with SF-295; 10.2 µM (inactive) in the assay with SF-539; 14.4 µM (inactive) with SK-MEL-28; 30.6 µM (inactive) in the assay with SK-OV-3; 3.04 µM (inactive) in the assay on SNB-75; 5.66 µM (inactive) with U-251.

Regarding `O=c1c2c3c(sc2nc2n1N=C(c1ccc([N+](=O)[O-])cc1)CS2)CCCC3`, the GI50 in the assay with A498 is > 100 µM (inactive); in the assay on A549 it was > 100 µM (inactive); with CCRF-CEM, > 100 µM (inactive); in the assay on COLO 205 it was > 100 µM (inactive); in the assay with HCT-116, > 100 µM (inactive); in the assay on HCT-15, above 100 µM. The GI50 in the assay with K562, with LOX IMVI, with MOLT-4, in the assay on Malme-3M, in the assay with NCI-H226 and in the assay with NCI-H460 was > 100 µM (inactive) in each case. The GI50 with SF-295, in the assay on SF-539, in the assay on SK-MEL-28, with SK-OV-3, in the assay with SNB-75 and in the assay with U-251 was > 100 µM (inactive) each time. The GI50 with UACC-257 was > 100 µM (inactive).

With `O=C1CCCSC(=O)N1Cc1ccccc1`, the GI50 in the assay with A498 was > 100 µM (inactive); in the assay on A549, > 100 µM (inactive); in the assay with CCRF-CEM, > 100 µM (inactive); with COLO 205, > 100 µM (inactive); in the assay on HCT-116, > 100 µM (inactive); in the assay on HCT-15, above 100 µM. Besides, the GI50 in the assay on LOX IMVI, in the assay on M14, in the assay with MOLT-4, in the assay with Malme-3M, with NCI-H226 and in the assay on NCI-H460 was > 100 µM (inactive) throughout. In addition, the GI50 is > 100 µM (inactive) in the assay with SF-295; > 100 µM (inactive) with SF-539; > 100 µM (inactive) in the assay with SK-MEL-28; > 100 µM (inactive) in the assay on SK-OV-3; 0.0515 µM (active) with SNB-75; > 100 µM (inactive) in the assay with UACC-257.
